From patent publication US9328099B2, “Cyanomethylpyrazole carboxamides as janus kinase inhibitors” (Merck Sharp & Dohme Corp., priority 2011, dated 2016) come the findings set out here.

Like-named read-outs stand apart in the source and are kept apart here.

For one assay, the target named is JAK2 (Homo sapiens (Human), UniProt O60674). Briefly: Jak Biochemical HTRF Assay, JAK2. The text has this:
(§1) Jak Biochemical HTRF Assay Protocol
(§2) Subsequent reagent additions employed an Agilent Bravo.

The next assay has as its target JAK1 (Homo sapiens (Human), UniProt P23458). In words: Jak Biochemical HTRF Assay, JAK1. The note with it: read-out: JAK1 IC50.
Excerpt: as §1, §2
Background: In TR-FRET formats the signal depends on donor and acceptor labels being close together.

The mark [1] stands for this setting: HTRF biochemical assay, GST-tagged catalytic domain, top concentration tested […].

Chain of JAK2 (O60674 849-1124): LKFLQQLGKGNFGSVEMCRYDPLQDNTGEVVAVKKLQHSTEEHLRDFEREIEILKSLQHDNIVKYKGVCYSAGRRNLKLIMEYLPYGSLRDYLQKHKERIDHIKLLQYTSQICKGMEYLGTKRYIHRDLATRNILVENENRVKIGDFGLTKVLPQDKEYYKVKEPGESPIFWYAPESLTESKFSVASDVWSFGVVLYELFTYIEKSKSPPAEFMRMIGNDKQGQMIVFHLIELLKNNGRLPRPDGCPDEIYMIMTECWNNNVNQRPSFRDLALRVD
Chain of JAK1 (P23458 875-1153): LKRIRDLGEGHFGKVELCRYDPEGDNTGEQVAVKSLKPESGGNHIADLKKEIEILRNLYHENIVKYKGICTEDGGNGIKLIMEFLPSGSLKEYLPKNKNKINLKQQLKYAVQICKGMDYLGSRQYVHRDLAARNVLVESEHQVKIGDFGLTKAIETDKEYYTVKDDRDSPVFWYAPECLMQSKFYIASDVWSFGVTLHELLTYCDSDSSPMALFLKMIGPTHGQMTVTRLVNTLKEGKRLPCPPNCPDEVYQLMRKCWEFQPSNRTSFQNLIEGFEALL

As to `N#CCC1(n2cc(C(N)=O)c(Nc3ccc(F)cc3)n2)CCN(C(=O)OCC(F)(F)F)CC1` [Example 30-2, 2,2,2-trifluoroethyl 4-(4-carbamoyl-3-(4-fluorophenylamino)-1H-pyrazol-1-yl)-4-(cyanomethyl)piperidine-1-carboxylate], the IC50 against JAK2 (setting [1]) is 15 nM; at JAK1 (setting [1]), 0.3 nM.
For `CC(OC(=O)N1CCC(CC#N)(n2cc(C(N)=O)c(Nc3ccc(F)cc3)n2)CC1)C(F)(F)F` (stereo not drawn) [Example 30-3, 1,1,1-trifluoropropan-2-yl 4-(4-carbamoyl-3-(4-fluorophenylamino)-1H-pyrazol-1-yl)-4-(cyanomethyl)piperidine-1-carboxylate] the same measures were 28 nM and 0.8 nM.
For `N#CCC1(n2cc(C(N)=O)c(Nc3ccc(F)cc3)n2)CCN(C(=O)OC2CCC2)CC1` [Example 30-4, cyclobutyl 4-(4-carbamoyl-3-(4-fluorophenylamino)-1H-pyrazol-1-yl)-4-(cyanomethyl)piperidine-1-carboxylate] the same measures were 33 nM and 0.9 nM.
Regarding `N#CCC1(n2cc(C(N)=O)c(Nc3ccc(F)cc3)n2)CCN(C(=O)OCC2CCC2)CC1` [Example 30-5, cyclobutylmethyl 4-(4-carbamoyl-3-(4-fluorophenylamino)-1H-pyrazol-1-yl)-4-(cyanomethyl)piperidine-1-carboxylate], the values for the IC50 against JAK2 (setting [1]) and at JAK1 (setting [1]) were 120 nM and 4 nM, respectively.
For `N#CCC1(n2cc(C(N)=O)c(Nc3ccc(F)cc3)n2)CCN(C(=O)OCC2CC2(F)F)CC1` (stereo not drawn) [Example 30-6, (2,2-difluorocyclopropyl)methyl 4-(4-carbamoyl-3-(4-fluorophenylamino)-1H-pyrazol-1-yl)-4-(cyanomethyl)piperidine-1-carboxylate] the same measures were 38 nM and 0.9 nM.
For the molecule `N#CCC1(n2cc(C(N)=O)c(Nc3ccc(F)cc3)n2)CCN(C(=O)OCC(F)F)CC1` [Example 30-7, 2,2-difluoroethyl 4-(4-carbamoyl-3-(4-fluorophenylamino)-1H-pyrazol-1-yl)-4-(cyanomethyl)piperidine-1-carboxylate], the IC50 on JAK2 (setting [1]) is 9 nM; on JAK1 (setting [1]), 0.5 nM.
Regarding `CC1(COC(=O)N2CCC(CC#N)(n3cc(C(N)=O)c(Nc4ccc(F)cc4)n3)CC2)CC1` [Example 30-8, (1-methylcyclopropyl)methyl 4-(4-carbamoyl-3-(4-fluorophenylamino)-1H-pyrazol-1-yl)-4-(cyanomethyl)piperidine-1-carboxylate], the IC50 against JAK2 (setting [1]) is 72 nM; at JAK1 (setting [1]), 1 nM.
`N#CCC1(n2cc(C(N)=O)c(Nc3ccc(F)cc3)n2)CCN(C(=O)OC(CF)CF)CC1` [Example 30-9, 1,3-difluoropropan-2-yl 4-(4-carbamoyl-3-(4-fluorophenylamino)-1H-pyrazol-1-yl)-4-(cyanomethyl)piperidine-1-carboxylate]: the results for the IC50 at JAK2 (setting [1]) and at JAK1 (setting [1]) were 5 nM and 0.3 nM, respectively.
As for `C[Si](C)(C)COC(=O)N1CCC(CC#N)(n2cc(C(N)=O)c(Nc3ccc(F)cc3)n2)CC1` [Example 30-10, (trimethylsilyl)methyl 4-(4-carbamoyl-3-(4-fluorophenylamino)-1H-pyrazol-1-yl)-4-(cyanomethyl)piperidine-1-carboxylate], the figures for the IC50 on JAK2 and on JAK1 were 745 nM and 21 nM, respectively.
Regarding `N#CCC1(n2cc(C(N)=O)c(Nc3ccc(F)cc3)n2)CCN(C(=O)OCC(F)(F)CO)CC1` [Example 30-11, 2,2-difluoro-3-hydroxypropyl 4-(4-carbamoyl-3-(4-fluorophenylamino)-1H-pyrazol-1-yl)-4-(cyanomethyl)piperidine-1-carboxylate], the IC50 on JAK2 (setting [1]) worked out at 11 nM; at JAK1 (setting [1]) it was 0.2 nM.
For `N#CCC1(n2cc(C(N)=O)c(Nc3ccc(F)cc3)n2)CCN(C(=O)OCC2(O)CC2)CC1` [Example 30-13, (1-hydroxycyclopropyl)methyl 4-(4-carbamoyl-3-(4-fluorophenylamino)-1H-pyrazol-1-yl)-4-(cyanomethyl)piperidine-1-carboxylate] the same measures were 20 nM and 0.9 nM.
For `C[C@@H](OC(=O)N1CCC(CC#N)(n2cc(C(N)=O)c(Nc3ccc(F)cc3)n2)CC1)C(F)(F)F` [Example 30-14, (R)-1,1,1-trifluoropropan-2-yl 4-(4-carbamoyl-3-(4-fluorophenylamino)-1H-pyrazol-1-yl)-4-(cyanomethyl)piperidine-1-carboxylate] the same measures were 30 nM and 2 nM.
Take `N#CCC1(n2cc(C(N)=O)c(Nc3cncc(F)c3)n2)CCN(C(=O)OCC(F)F)CC1` [Example 30-15, 2,2-difluoroethyl 4-(4-carbamoyl-3-(5-fluoropyridin-3-ylamino)-1H-pyrazol-1-yl)-4-(cyanomethyl)piperidine-1-carboxylate]: the IC50 at JAK2 (setting [1]) amounted to 19 nM; on JAK1 (setting [1]), 1 nM.
`N#CCC1(n2cc(C(N)=O)c(Nc3ccnc(F)c3)n2)CCN(C(=O)OC2CCOCC2)CC1` [Example 30-17, tetrahydro-2H-pyran-4-yl 4-{4-carbamoyl-3-[(2-fluoropyridin-4-yl)amino]-1H-pyrazol-1-yl}-4-(cyanomethyl)piperidine-1-carboxylate]: the values for the IC50 at JAK2 (setting [1]) and on JAK1 (setting [1]) were 96 nM and 3 nM, respectively.
For `N#CCC1(n2cc(C(N)=O)c(Nc3ccc(F)cc3)n2)CCN(C(=O)OC2COC2)CC1` [Example 30-18, oxetan-3-yl 4-{4-carbamoyl-3-[(4-fluorophenyl)amino]-1H-pyrazol-1-yl}-4-(cyanomethyl)piperidine-1-carboxylate] the same measures were 44 nM and 2 nM.
For `N#CCC1(n2cc(C(N)=O)c(Nc3ccc(F)cc3)n2)CCN(C(=O)OCC2CC2)CC1` [Example 30-19, cyclopropylmethyl 4-{4-carbamoyl-3-[(4-fluorophenyl)amino]-1H-pyrazol-1-yl}-4-(cyanomethyl)piperidine-1-carboxylate] the same measures were 37 nM and 1 nM.
For `CC1(COC(=O)N2CCC(CC#N)(n3cc(C(N)=O)c(Nc4ccc(F)cc4)n3)CC2)COC1` [Example 30-20, (3-methyloxetan-3-yl)methyl 4-{4-carbamoyl-3-[(4-fluorophenyl)amino]-1H-pyrazol-1-yl}-4-(cyanomethyl)piperidine-1-carboxylate] the same measures were 240 nM and 8 nM.
For the molecule `N#CCC1(n2cc(C(N)=O)c(Nc3ccc(F)cc3)n2)CCN(C(=O)OCC2CCOCC2)CC1` [Example 30-21, tetrahydro-2H-pyran-4-ylmethyl 4-{4-carbamoyl-3-[(4-fluorophenyl)amino]-1H-pyrazol-1-yl}-4-(cyanomethyl)piperidine-1-carboxylate], the values for the IC50 at JAK2 (setting [1]) and at JAK1 (setting [1]) were 145 nM and 6 nM, respectively.
In the case of `N#CCC1(n2cc(C(N)=O)c(Nc3ccc(F)cc3)n2)CCN(C(=O)OCC2CCOC2)CC1` (stereo not drawn) [Example 30-22, tetrahydrofuran-3-ylmethyl 4-{4-carbamoyl-3-[(4-fluorophenyl)amino]-1H-pyrazol-1-yl}-4-(cyanomethyl)piperidine-1-carboxylate], the IC50 on JAK2 (setting [1]) worked out at 123 nM; on JAK1 (setting [1]), 5 nM.
For `COCC(C)OC(=O)N1CCC(CC#N)(n2cc(C(N)=O)c(Nc3ccc(F)cc3)n2)CC1` (stereo not drawn) [Example 30-23, 1-methoxypropan-2-yl 4-{4-carbamoyl-3-[(4-fluorophenyl)amino]-1H-pyrazol-1-yl}-4-(cyanomethyl)piperidine-1-carboxylate] the same measures were 40 nM and 2 nM.
`COC(C)COC(=O)N1CCC(CC#N)(n2cc(C(N)=O)c(Nc3ccc(F)cc3)n2)CC1` (stereo not drawn) [Example 30-24, 2-methoxypropyl 4-{4-carbamoyl-3-[(4-fluorophenyl)amino]-1H-pyrazol-1-yl}-4-(cyanomethyl)piperidine-1-carboxylate]: the IC50 turned out to be 96 nM against JAK2 (setting [1]) and 4 nM at JAK1 (setting [1]).
For `N#CCC1(n2cc(C(N)=O)c(Nc3ccc(F)cc3)n2)CCN(C(=O)OC2CCCOC2)CC1` (stereo not drawn) [Example 30-25, tetrahydro-2H-pyran-3-yl 4-{4-carbamoyl-3-[(4-fluorophenyl)amino]-1H-pyrazol-1-yl}-4-(cyanomethyl)piperidine-1-carboxylate] the same measures were 120 nM and 4 nM.
For `N#CCC1(n2cc(C(N)=O)c(Nc3ccnc(F)c3)n2)CCN(C(=O)OCC(F)F)CC1` [Example 30-27, 2,2-difluoroethyl 4-(4-carbamoyl-3-(2-fluoropyridin-4-ylamino)-1H-pyrazol-1-yl)-4-(cyanomethyl)piperidine-1-carboxylate] the same measures were 5 nM and 0.07 nM.
For `CC(C)COC(=O)N1CCC(CC#N)(n2cc(C(N)=O)c(Nc3ccccc3)n2)CC1` [Example 30-28, 2-methylpropyl 4-[4-carbamoyl-3-(phenylamino)-1H-pyrazol-1-yl]-4-(cyanomethyl)piperidine-1-carboxylate] the same measures were 102 nM and 3 nM.
Consider `CC(C)(C)COC(=O)N1CCC(CC#N)(n2cc(C(N)=O)c(Nc3ccccc3)n2)CC1` [Example 30-29, 2,2-dimethylpropyl 4-[4-carbamoyl-3-(phenylamino)-1H-pyrazol-1-yl]-4-(cyanomethyl)piperidine-1-carboxylate], for which the IC50 on JAK2 (setting [1]) was determined as 249 nM; at JAK1 (setting [1]), 6 nM.
For `N#CCC1(n2cc(C(N)=O)c(Nc3ccccc3)n2)CCN(C(=O)OC2CCCC2)CC1` [Example 30-30, cyclopentyl 4-[4-carbamoyl-3-(phenylamino)-1H-pyrazol-1-yl]-4-(cyanomethyl)piperidine-1-carboxylate] the same measures were 50 nM and 1 nM.
As for `N#CCC1(n2cc(C(N)=O)c(Nc3ccccc3)n2)CCN(C(=O)OC2CCCCC2)CC1` [Example 30-31, cyclohexyl 4-[4-carbamoyl-3-(phenylamino)-1H-pyrazol-1-yl]-4-(cyanomethyl)piperidine-1-carboxylate], the IC50 against JAK2 (setting [1]) was determined as 318 nM; at JAK1 (setting [1]) it was 8 nM.

As a reminder, the IC50 is the concentration at which inhibition is half-maximal.
